Experiments:
Phakopsora pachyrhizi = Phakopsora pachyrhizi / soybean / leaf disc preventative (Asian soybean rust); assay type: in vivo; conditions: foliar, 200 ppm in the applied formulation, soybean leaf disks, inoculated one day after application, assessed 12 to 14 days after application, read-out: disease control compared to untreated control leaf disks
Experimental: Leaf disks or leaf segments of various plant species are cut from plants grown in a greenhouse. The cut leaf disks or segments are placed in multiwell plates (24-well format) onto water agar. The leaf disks are sprayed with a test solution before (preventative) or after (curative) inoculation. Compounds to be tested are prepared as DMSO solutions (max. 10 mg/ml) which are diluted to the appropriate concentration with 0.025% Tween20 just before spraying. The inoculated leaf disks or segments are incubated under defined conditions (temperature, relative humidity, light, etc.) according to the respective test system. A single evaluation of disease level is carried out 3 to 14 days after inoculation, depending on the pathosystem. Percent disease control relative to the untreated check leaf disks or segments is then calculated.
Soybean leaf disks are placed on water agar in multiwell plates (24-well format) and sprayed with the formulated test compound diluted in water. One day after application leaf discs are inoculated by spraying a spore suspension on the lower leaf surface. After an incubation period in a climate cabinet of 24-36 hours in darkness at 20° C. and 75% rh leaf disc are kept at 20° C. with 12 h light/day and 75% rh. The activity of a compound is assessed as percent disease control compared to untreated when an appropriate level of disease damage appears in untreated check leaf disks (12 to 14 days after application).
The following compounds at 200 ppm in the applied formulation give at least 80% disease control in this test when compared to untreated control leaf disks under the same conditions, which show extensive disease development.

[1] = test system: Glomerella lagenarium (Colletotrichum lagenarium); assay: Glomerella lagenarium (Colletotrichum lagenarium) liquid culture / cucumber / preventative (anthracnose); assay type: cell-based; conditions: Colletotrichum orbiculare; 20 ppm in the applied formulation; liquid culture in PDB, 24° C.; 3 to 4 days after application; read-out: disease control compared to untreated control (inhibition of growth measured photometrically)
Experimental: Mycelia fragments or conidia suspensions of a fungus prepared either freshly from liquid cultures of the fungus or from cryogenic storage, are directly mixed into nutrient broth. DMSO solutions of the test compound (max. 10 mg/ml) are diluted with 0.025% Tween20 by a factor of 50 and 10 μl of this solution is pipetted into a microtiter plate (96-well format). The nutrient broth containing the fungal spores/mycelia fragments is then added to give an end concentration of the tested compound. The test plates are incubated in the dark at 24° C. and 96% relative humidity. The inhibition of fungal growth is determined photometrically after 2 to 7 days, depending on the pathosystem, and percent antifungal activity relative to the untreated check is calculated.
Conidia of the fungus from cryogenic storage are directly mixed into nutrient broth (PDB—potato dextrose broth). After placing a (DMSO) solution of test compound into a microtiter plate (96-well format), the nutrient broth containing the fungal spores is added. The test plates are incubated at 24° C. and the inhibition of growth is measured photometrically 3 to 4 days after application.
The following compounds at 20 ppm in the applied formulation give at least 80% disease control in this test when compared to untreated control under the same conditions, which show extensive disease development.

Row | SMILES | melting point [°C] | pest or weed control at 200 ppm (Phakopsora pachyrhizi) [%] | inhibition at 20 ppm [1] [%]
1 | Cc1cc(-c2noc(C(F)(F)F)n2)ccc1SCc1ccccc1 [Compound 1.22, 3-(4-benzylsulfanyl-3-methyl-phenyl)-5-(trifluoromethyl)-1,2,4-oxadiazole] | 66 to 72 |  | 
2 | FC(F)(F)CSc1ccc(-c2noc(C(F)(F)F)n2)cc1 [Compound 1.4, 3-[4-(2,2,2-trifluoroethylsulfanyl)phenyl]-5-(trifluoromethyl)-1,2,4-oxadiazole] |  | ≥ 80 | 
3 | COc1ccccc1Sc1ccc(-c2noc(C(F)(F)F)n2)cc1 [Compound 1.11, 3-[4-(2-methoxyphenyl)sulfanyl-phenyl]-5-(trifluoromethyl)-1,2,4-oxadiazole] |  | ≥ 80 | 
4 | O=S(=O)(c1ccc(-c2noc(C(F)(F)F)n2)cc1)c1ccccc1Cl [Compound 3.20, 3-[4-(2-chlorophenyl)sulfonylphenyl]-5-(trifluoromethyl)-1,2,4-oxadiazole] |  | ≥ 80 | ≥ 80
5 | CC(C)(C)Sc1ccc(-c2noc(C(F)(F)F)n2)cc1 [Compound 1.16, 3-(4-tert-butylsulfanylphenyl)-5-(trifluoromethyl)-1,2,4-oxadiazole] |  |  | ≥ 80
6 | FC(F)(F)c1nc(-c2ccc(Sc3ccccc3Cl)cc2)no1 [Compound 1.18, 3-[4-(2-chlorophenyl)sulfanylphenyl]-5-(trifluoromethyl)-1,2,4-oxadiazole] |  | ≥ 80 | 
7 | Fc1ccccc1Sc1ccc(-c2noc(C(F)(F)F)n2)cn1 [Compound 1.20, 3-[6-(2-fluorophenyl)sulfanyl-3-pyridyl]-5-(trifluoromethyl)-1,2,4-oxadiazole] |  | ≥ 80 | ≥ 80
8 | Fc1ccc(Sc2ccc(-c3noc(C(F)(F)F)n3)cc2)cc1 [Compound 1.9, 3-[4-(4-fluorophenyl)sulfanylphenyl]-5-(trifluoromethyl)-1,2,4-oxadiazole] | 64 to 67 | ≥ 80 | 
9 | Fc1cc(-c2noc(C(F)(F)F)n2)cc(F)c1CSc1ccccc1 [Compound 1.27, 3-[3,5-difluoro-4-(phenylsulfanylmethyl)phenyl]-5-(trifluoromethyl)-1,2,4-oxadiazole] | 50 to 55 |  | ≥ 80
10 | FC(F)(F)c1nc(-c2ccc(SCc3ccccc3)nc2)no1 [Compound 1.21, 3-(6-benzylsulfanyl-3-pyridyl)-5-(trifluoromethyl)-1,2,4-oxadiazole] | 66 to 68 |  | ≥ 80
11 | FC(F)(F)c1nc(-c2ccc(CSc3ccccc3)cc2)no1 [Compound 1.13, 3-[4-(phenylsulfanylmethyl)phenyl]-5-(trifluoromethyl)-1,2,4-oxadiazole] | 86 to 91 | ≥ 80 | 
12 | Cc1ccccc1Sc1ccc(-c2noc(C(F)(F)F)n2)cn1 [Compound 1.19, 3-[6-(o-tolylsulfanyl)-3-pyridyl]-5-(trifluoromethyl)-1,2,4-oxadiazole] |  |  | ≥ 80
13 | Cc1ccccc1Sc1ccc(-c2noc(C(F)(F)F)n2)cc1 [Compound 1.17, 3-[4-(o-tolylsulfanyl)phenyl]-5-(trifluoromethyl)-1,2,4-oxadiazole] |  | ≥ 80 | 
14 | O=S(=O)(c1ccc(-c2noc(C(F)(F)F)n2)cc1)c1ccc(F)cc1F [Compound 3.4, 3-[4-(2,4-difluorophenyl)sulfonyl-phenyl]-5-(trifluoromethyl)-1,2,4-oxadiazole] |  | ≥ 80 | ≥ 80
15 | FC(F)(F)c1nc(-c2ccc(SCc3ccccc3)cc2)no1 [Compound 1.3, 3-(4-benzylsulfanylphenyl)-5-(trifluoromethyl)-1,2,4-oxadiazole] | 83 to 87 |  | 
16 | Fc1cccc(F)c1CSc1ccc(-c2noc(C(F)(F)F)n2)cc1 [Compound 1.6, 3-[4-[(2,6-difluorophenyl)methylsulfanyl]phenyl]-5-(trifluoromethyl)-1,2,4-oxadiazole] |  | ≥ 80 | 

Second part, led by results:

Row | melting point [°C] | SMILES | pest or weed control at 200 ppm (Phakopsora pachyrhizi) [%] | inhibition at 20 ppm [1] [%]
17 | 172 to 178 | O=S(=O)(Cc1ccc(-c2noc(C(F)(F)F)n2)c(F)c1)c1ccccc1 [Compound 3.22, 3-[4-(benzenesulfonylmethyl)-2-fluoro-phenyl]-5-(trifluoromethyl)-1,2,4-oxadiazole] | ≥ 80 | 
18 | 75 to 80 | CCC(C)CS(=O)(=O)c1ccc(-c2noc(C(F)(F)F)n2)cc1 (stereo not drawn) [Compound 3.15, 3-[4-(2-methylbutylsulfonyl)phenyl]-5-(trifluoromethyl)-1,2,4-oxadiazole] |  | ≥ 80
19 | 160 to 166 | O=S(=O)(Cc1ccc(-c2noc(C(F)(F)F)n2)cn1)c1ccccc1 [Compound 3.21, 3-[6-(benzenesulfonylmethyl)-3-pyridyl]-5-(trifluoromethyl)-1,2,4-oxadiazole] | ≥ 80 | ≥ 80
20 | 150 to 154 | O=S(=O)(Cc1ccc(-c2noc(C(F)(F)F)n2)cc1)c1ccccc1F [Compound 3.11, 3-[4-[(2-fluorophenyl)sulfonylmethyl]phenyl]-5-(trifluoromethyl)-1,2,4-oxadiazole] | ≥ 80 | 
21 | 118 to 125 | Cc1ccc(C)c(S(=O)(=O)c2ccc(-c3noc(C(F)(F)F)n3)cc2)c1 [Compound 3.6, 3-[4-(2,5-dimethylphenyl)sulfonyl-phenyl]-5-(trifluoromethyl)-1,2,4-oxadiazole] |  | ≥ 80
22 | 80 to 86 | [O-][S+](c1ccc(-c2noc(C(F)(F)F)n2)cc1)c1ccccc1C(F)(F)F (stereo not drawn) [Compound 2.21, 5-(trifluoromethyl)-3-[4-[2-(trifluoromethyl)phenyl]sulfinylphenyl]-1,2,4-oxadiazole] | ≥ 80 | 
23 | 122 to 125 | [O-][S+](Cc1ccccc1)c1ccc(-c2noc(C(F)(F)F)n2)cn1 (stereo not drawn) [Compound 2.27, 3-(6-benzylsulfinyl-3-pyridyl)-5-(trifluoromethyl)-1,2,4-oxadiazole] |  | ≥ 80
24 | 178 to 181 | [O-][S+](Cc1ccccc1)c1ccc(-c2noc(C(F)(F)F)n2)cc1 (stereo not drawn) [Compound 2.4, 3-(4-benzylsulfinylphenyl)-5-(trifluoromethyl)-1,2,4-oxadiazole] |  | ≥ 80
25 | 117 to 124 | Cc1cc(-c2noc(C(F)(F)F)n2)ccc1S(=O)(=O)c1ccccc1 [Compound 3.8, 3-[4-(benzenesulfonyl)-3-methyl-phenyl]-5-(trifluoromethyl)-1,2,4-oxadiazole] |  | ≥ 80
26 | 117 to 122 | O=S(=O)(CC(F)(F)F)c1ccc(-c2noc(C(F)(F)F)n2)cc1 [Compound 3.5, 3-[4-(2,2,2-trifluoroethylsulfonyl)phenyl]-5-(trifluoromethyl)-1,2,4-oxadiazole] |  | ≥ 80
27 | 135 to 140 | O=S(=O)(Cc1c(F)cc(-c2noc(C(F)(F)F)n2)cc1F)c1ccccc1 [Compound 3.24, 3-[4-(benzenesulfonylmethyl)-3,5-difluoro-phenyl]-5-(trifluoromethyl)-1,2,4-oxadiazole] | ≥ 80 | 
28 | 187 to 191 | O=S(=O)(Cc1ccc(-c2noc(C(F)(F)F)n2)c(F)c1F)c1ccccc1 [Compound 3.23, 3-[4-(benzenesulfonylmethyl)-2,3-difluoro-phenyl]-5-(trifluoromethyl)-1,2,4-oxadiazole] | ≥ 80 | 
29 | 133 to 136 | CC(C)(C)S(=O)(=O)c1ccc(-c2noc(C(F)(F)F)n2)cc1 [Compound 3.13, 3-(4-tert-butylsulfonylphenyl)-5-(trifluoromethyl)-1,2,4-oxadiazole] |  | ≥ 80
30 | 149 to 156 | [O-][S+](Cc1ccc(-c2noc(C(F)(F)F)n2)c(F)c1)c1ccccc1 (stereo not drawn) [Compound 2.30, 3-[4-(benzenesulfinylmethyl)-2-fluoro-phenyl]-5-(trifluoromethyl)-1,2,4-oxadiazole] |  | 

From patent US20180319753A1, “MICROBIOCIDAL OXADIAZOLE DERIVATIVES” (SYNGENTA PARTICIPATIONS AG, priority 2015, published 2018)
